From patent publication US20230248814A1, “COMPOSITIONS AND METHODS FOR TREATING MERKEL CELL CARCINOMA (MCC) USING HLA CLASS I SPECIFIC EPITOPES” (The Broad Institute, Inc., priority 2020, published 2023)

How the values were obtained:
Format in all cases: cell-based, human
[1] = test system: MCC lines (MCC-301, -277, -290, -320); experiment: USP7 inhibitor experiments: flow cytometry for surface HLA-I in MCC lines
[2] = test system: MKL-1 cells; experiment: USP7 inhibitor flow cytometry for surface HLA-I in MKL-1 p53-WT control and p53-KO lines; settings: MKL-1 TP53-KO and TP53-WT lines; 100 nM
Method: For MKL-1 USP7 inhibitor experiments, p53-WT control lines (WT, scrambled, AAVS1) and three p53-KO lines were treated with USP7 inhibitors and assessed by flow cytometry for surface HLA I as described above for MCC-301.

[3] = test system: MKL-1 cells; experiment: Cell cycle analysis (EdU/DAPI flow cytometry) of MKL-1 control or p53 KO cells; settings: MKL-1 TP53-WT and TP53-KO; 100 nM; three days
Method: Cell cycle analysis. 1 million MKL-1 control or p53 KO cells were plated and treated with DMSO, XL177A (100 nM) or XL177B (100 nM) for three days. During the last hour of the three- day treatment, the cells were pulsed with 10 µM EdU nucleotide. The cells were collected by centrifugation, treated with Accutase™ (Stem Cell Technologies) to break apart clumps, washed with PBS and fixed using 4% Formaldehyde solution in PBS at Room temperature for 15 mins. Cells were washed with 1% BSA in PBS and resuspended in 70% ice cold ethanol and incubated at -20° C. overnight for additional fixing and permeabilization. The cells were stored in 70% ethanol at -20° C. until the day the data was acquired. On the day of data acquisition, the cells were collected by centrifugation and washed twice with PBS. The incorporated EdU in the cells were labeled with a CLICK reaction cocktail (1 mM CuSO4, 100 µM THPTA, 100 mM sodium ascorbate, and 2.2 µM Alexa 647 azide in PBS) at room temperature with rocking for 30 minutes. The samples were then washed with 1% BSA in PBS once followed by two washes with PBS and incubated with a 1 µg/ml DAPI, 100 ng/ml RNase A solution for one hour at Room temperature to stain the DNA. The samples were then passed through strainer tubes and analyzed using a BD Fortessa analyzer. The flow cytometry data was analyzed using the FlowJo Software. […]

[4] = test system: MCC-301 cells; experiment: HLA-I-bound peptidome (TMT LC-MS/MS) of USP7 inhibitor treated MCC-301 cells
Method: Immunopeptidomes of USP7 inhibitor treated cell lines were eluted as described above, followed by labeling with TMT6 reagent (Thermo Fisher; 126-USP7iA, 127-WT, 128 USP7iA, 129 WT, 130-USP7iB, 131 USP7iB) and then pooled for subsequent fractionation using basic reversed phase fractionation with increasing concentrations of acetonitrile (10%, 15% and 50%) in 5 mM ammonium formate (pH 10) and analysis on an Orbitrap Exploris 480 with FAIMSpro. Data acquisition parameters were as above with NCE set to 34 and 2 second dynamic exclusion.
Mass spectra were interpreted using Spectrum Mill software package v7.1 pre-Release (Broad Institute, Cambridge, MA). […] Merging of similar spectra with the same precursor m/z acquired in the same chromatographic peak was disabled. MS/MS spectra were searched against a protein sequence database that contained 90,904 entries, including all UCSC Genome Browser genes with hg19 annotation of the genome and its protein coding transcripts (52,788 entries), common human virus sequences (30,181 entries), recurrently mutated proteins observed in tumors from 26 tissues (4,595 entries), 264 common laboratory contaminants as well as protein sequences containing somatic mutations detected in MCC cell lines (3,076 entries). MS/MS search parameters included: no-enzyme specificity; ESI-QEXACTIVE-HCD-HLA-v3 instrument scoring; fixed modification: […]; variable modifications: oxidation of methionine, carbamidomethylation of cysteine and pyroglutamic acid at peptide N-terminal glutamine; precursor mass tolerance of ±10 ppm; product mass tolerance of ±10 ppm, and a minimum matched peak intensity of 30%. Peptide spectrum matches (PSMs) for individual spectra were automatically designated as confidently assigned using the Spectrum Mill auto-validation module to apply target-decoy based FDR estimation at the PSM level of <1% FDR. Peptide auto-validation was done separately for each sample with an auto thresholds strategy to optimize score and delta Rank1 - Rank2 score thresholds separately for each precursor charge state (1 through 4) across all LC-MS/MS runs per sample. […] Peptide and PSM exports were filtered for contaminants including potential carry over tryptic peptides and peptides identified in a blank bead sample. For TMT-labeled samples, peptides derived from keratin proteins were removed and TMT intensity values were normalized to the global median. P-values were calculated using in house software based on the limma package in R.

[5] = 100 nM, 3 days, two MCPyV+ lines (MCC-301, -277)

SMILES: CN1CCN(CCC(=O)Nc2ccc3c(=O)n(CC4(O)CCN(C(=O)[C@@H](CCCNC(=O)c5ccc6c(Cl)c7c(nc6c5)CCCC7)Cc5ccccc5)CC4)cnc3c2)CC1 [XL177A]
- increase in expression of surface HLA-I relative to DMSO (mean) [1, 5]: 2.0 fold
- increase in expression of surface HLA-I relative to DMSO (range) [1, 5]: 1.78 - 2.27 fold
- increase in MFI (HLA-ABC) by flow cytometry ([1]; MCC-301, 100 nM, 4 days): greater than twofold increase
- HLA-I levels ([1]; MCPyV- line MCC-290, 3 days): more modest increase in HLA-I levels
- HLA-I levels ([1]; MCPyV- line MCC-320, 3 days): but not MCC-320
- surface HLA-I relative to XL177B and DMSO [2]: increased surface HLA-I
- cell cycle phase distribution [3]: slight cell cycle shifts from S to G1 phase
- abundances of HLA-I displayed peptides compared to XL177B and untreated cells [4]: higher abundances of displayed peptides
- frequency of peptides displayed on each HLA-I gene (HLA-A, -B, -C) [4]: did not affect
- peptides more abundant than in untreated cells, out of 282 significantly differing (P < 0.05) [4]: 270 peptides
- share of the 282 significantly differing peptides more abundant than in untreated cells [4]: 95.7%
